Values belong to the molecule of their own block, whether it stands above or below them.
What was measured:
[1] = molecular target: T1, Cyclin-G-associated kinase (Homo sapiens) (UniProt O14976); conditions: at 10 µM
T1 sequence (whole entry): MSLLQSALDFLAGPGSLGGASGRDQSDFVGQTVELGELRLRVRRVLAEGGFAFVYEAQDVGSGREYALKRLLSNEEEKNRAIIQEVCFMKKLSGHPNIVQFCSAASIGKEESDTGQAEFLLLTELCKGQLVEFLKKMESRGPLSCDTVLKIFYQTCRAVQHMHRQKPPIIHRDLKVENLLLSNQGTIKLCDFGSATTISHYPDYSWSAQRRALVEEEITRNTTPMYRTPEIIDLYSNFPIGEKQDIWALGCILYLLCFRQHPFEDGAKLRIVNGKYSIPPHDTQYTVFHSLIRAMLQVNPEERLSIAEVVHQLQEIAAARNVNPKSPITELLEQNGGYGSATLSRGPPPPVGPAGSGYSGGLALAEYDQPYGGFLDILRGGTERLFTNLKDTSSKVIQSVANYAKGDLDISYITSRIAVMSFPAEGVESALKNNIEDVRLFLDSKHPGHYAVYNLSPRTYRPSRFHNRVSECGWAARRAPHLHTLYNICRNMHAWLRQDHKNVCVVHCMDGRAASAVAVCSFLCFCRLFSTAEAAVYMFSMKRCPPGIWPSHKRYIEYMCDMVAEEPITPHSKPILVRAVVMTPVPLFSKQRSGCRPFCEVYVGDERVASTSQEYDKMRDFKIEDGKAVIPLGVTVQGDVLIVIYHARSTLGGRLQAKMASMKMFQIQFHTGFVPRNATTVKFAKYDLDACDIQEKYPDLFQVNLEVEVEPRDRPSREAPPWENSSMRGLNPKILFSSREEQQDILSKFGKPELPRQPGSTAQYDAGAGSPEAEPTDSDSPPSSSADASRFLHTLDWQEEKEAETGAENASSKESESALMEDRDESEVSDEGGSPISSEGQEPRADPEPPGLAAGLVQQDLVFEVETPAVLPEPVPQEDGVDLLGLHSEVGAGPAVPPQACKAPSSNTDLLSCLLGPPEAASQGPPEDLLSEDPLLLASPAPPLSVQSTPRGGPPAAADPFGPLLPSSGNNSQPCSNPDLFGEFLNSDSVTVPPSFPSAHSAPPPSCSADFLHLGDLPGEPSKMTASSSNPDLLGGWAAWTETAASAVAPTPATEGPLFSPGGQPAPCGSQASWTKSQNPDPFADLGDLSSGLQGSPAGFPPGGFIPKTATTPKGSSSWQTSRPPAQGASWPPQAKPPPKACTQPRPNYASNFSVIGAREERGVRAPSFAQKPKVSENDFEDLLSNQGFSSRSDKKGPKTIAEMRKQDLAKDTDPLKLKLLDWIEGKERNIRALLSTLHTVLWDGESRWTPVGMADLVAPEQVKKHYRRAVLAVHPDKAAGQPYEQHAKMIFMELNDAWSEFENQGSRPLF

[2] = molecular target: Serine/threonine-protein kinase PLK3 (Homo sapiens, UniProt Q9H4B4); assay: Selectivity interaction (Millipore kinase profiler) EUB0000124b PLK3; conditions: at 10 µM
[3] = molecular target: Non-receptor tyrosine-protein kinase TYK2 (Homo sapiens, UniProt P29597); assay: Selectivity interaction (KinomeScan (DiscoverX)) EUB0001079a TYK2; conditions: at 1 µM
[4] = molecular target: T2, Mitogen-activated protein kinase 15 (Homo sapiens) (UniProt Q8TD08); assay: Selectivity interaction (KinomeScan (DiscoverX)) EUB0001079a MAPK15; conditions: at 1 µM
T2 sequence (whole entry): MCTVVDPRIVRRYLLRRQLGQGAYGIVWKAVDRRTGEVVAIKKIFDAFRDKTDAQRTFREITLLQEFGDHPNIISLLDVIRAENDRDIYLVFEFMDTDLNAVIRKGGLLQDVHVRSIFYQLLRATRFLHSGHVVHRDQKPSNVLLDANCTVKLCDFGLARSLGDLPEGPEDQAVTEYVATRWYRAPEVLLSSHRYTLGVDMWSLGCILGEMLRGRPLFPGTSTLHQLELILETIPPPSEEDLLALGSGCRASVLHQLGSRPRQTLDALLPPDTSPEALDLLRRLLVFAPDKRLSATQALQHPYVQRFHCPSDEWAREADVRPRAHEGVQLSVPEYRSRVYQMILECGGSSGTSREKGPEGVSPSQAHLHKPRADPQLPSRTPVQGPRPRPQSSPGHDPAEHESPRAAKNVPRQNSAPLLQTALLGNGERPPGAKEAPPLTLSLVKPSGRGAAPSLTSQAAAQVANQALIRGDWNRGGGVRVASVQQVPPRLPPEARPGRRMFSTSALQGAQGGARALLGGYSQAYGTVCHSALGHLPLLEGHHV

[5] = molecular target: Receptor tyrosine-protein kinase erbB-4 (Homo sapiens, UniProt Q15303); assay: Selectivity interaction (ProQinase) EUB0000171b ERBB4
[6] = molecular target: T3, Protein kinase C epsilon type (Homo sapiens) (UniProt Q02156); assay: Selectivity interaction (Upstate Kinase Profiler service (Millipore)) EUB0000056c PRKCE; conditions: at 1 µM
T3 sequence (whole entry): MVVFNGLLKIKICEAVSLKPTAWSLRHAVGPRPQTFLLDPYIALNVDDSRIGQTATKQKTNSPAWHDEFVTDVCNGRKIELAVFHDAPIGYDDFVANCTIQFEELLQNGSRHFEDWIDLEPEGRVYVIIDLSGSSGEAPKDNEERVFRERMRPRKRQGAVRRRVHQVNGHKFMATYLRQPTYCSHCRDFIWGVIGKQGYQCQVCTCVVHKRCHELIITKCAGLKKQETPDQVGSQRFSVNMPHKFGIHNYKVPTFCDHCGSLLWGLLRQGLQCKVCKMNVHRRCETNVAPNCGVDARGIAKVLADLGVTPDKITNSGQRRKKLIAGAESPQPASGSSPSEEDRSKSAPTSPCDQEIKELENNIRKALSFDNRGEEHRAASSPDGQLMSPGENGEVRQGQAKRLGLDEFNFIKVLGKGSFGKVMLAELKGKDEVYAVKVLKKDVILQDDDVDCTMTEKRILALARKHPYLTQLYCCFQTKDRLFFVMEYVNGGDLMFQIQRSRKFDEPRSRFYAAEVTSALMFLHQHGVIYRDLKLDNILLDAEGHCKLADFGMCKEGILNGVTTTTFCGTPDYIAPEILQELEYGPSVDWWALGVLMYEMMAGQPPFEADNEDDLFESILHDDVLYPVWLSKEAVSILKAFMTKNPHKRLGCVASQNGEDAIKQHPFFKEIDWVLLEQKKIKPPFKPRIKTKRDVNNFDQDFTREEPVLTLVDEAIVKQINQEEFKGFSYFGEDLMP

[7] = molecular target: Vascular endothelial growth factor receptor 3 (Homo sapiens, UniProt P35916); assay: Selectivity interaction (KinomeScan (DiscoverX)) EUB0000045b FLT4
[8] = molecular target: Serine/threonine-protein kinase 24 (Homo sapiens) (UniProt Q9Y6E0); assay: Selectivity interaction (ActivX KiNativ screen (ex vivo kinase selectivity in human PBMCs)) EUB0001619a STK24; type: cell-based; conditions: PBMC, at 1 µM
Chain of Serine/threonine-protein kinase 24 (Homo sapiens) (Q9Y6E0 whole entry, looked up): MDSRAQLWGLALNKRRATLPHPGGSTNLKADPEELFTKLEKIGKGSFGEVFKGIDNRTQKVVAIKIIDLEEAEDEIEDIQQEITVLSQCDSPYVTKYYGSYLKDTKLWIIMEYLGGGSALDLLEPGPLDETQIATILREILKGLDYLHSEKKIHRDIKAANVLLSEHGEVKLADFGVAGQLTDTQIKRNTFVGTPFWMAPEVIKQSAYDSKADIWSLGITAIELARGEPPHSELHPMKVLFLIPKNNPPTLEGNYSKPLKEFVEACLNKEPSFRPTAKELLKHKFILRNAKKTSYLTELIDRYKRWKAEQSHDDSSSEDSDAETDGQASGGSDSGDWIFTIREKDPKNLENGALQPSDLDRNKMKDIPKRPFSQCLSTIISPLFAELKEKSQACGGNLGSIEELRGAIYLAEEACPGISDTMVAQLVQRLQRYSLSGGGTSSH

Chain of Vascular endothelial growth factor receptor 3 (P35916 whole entry): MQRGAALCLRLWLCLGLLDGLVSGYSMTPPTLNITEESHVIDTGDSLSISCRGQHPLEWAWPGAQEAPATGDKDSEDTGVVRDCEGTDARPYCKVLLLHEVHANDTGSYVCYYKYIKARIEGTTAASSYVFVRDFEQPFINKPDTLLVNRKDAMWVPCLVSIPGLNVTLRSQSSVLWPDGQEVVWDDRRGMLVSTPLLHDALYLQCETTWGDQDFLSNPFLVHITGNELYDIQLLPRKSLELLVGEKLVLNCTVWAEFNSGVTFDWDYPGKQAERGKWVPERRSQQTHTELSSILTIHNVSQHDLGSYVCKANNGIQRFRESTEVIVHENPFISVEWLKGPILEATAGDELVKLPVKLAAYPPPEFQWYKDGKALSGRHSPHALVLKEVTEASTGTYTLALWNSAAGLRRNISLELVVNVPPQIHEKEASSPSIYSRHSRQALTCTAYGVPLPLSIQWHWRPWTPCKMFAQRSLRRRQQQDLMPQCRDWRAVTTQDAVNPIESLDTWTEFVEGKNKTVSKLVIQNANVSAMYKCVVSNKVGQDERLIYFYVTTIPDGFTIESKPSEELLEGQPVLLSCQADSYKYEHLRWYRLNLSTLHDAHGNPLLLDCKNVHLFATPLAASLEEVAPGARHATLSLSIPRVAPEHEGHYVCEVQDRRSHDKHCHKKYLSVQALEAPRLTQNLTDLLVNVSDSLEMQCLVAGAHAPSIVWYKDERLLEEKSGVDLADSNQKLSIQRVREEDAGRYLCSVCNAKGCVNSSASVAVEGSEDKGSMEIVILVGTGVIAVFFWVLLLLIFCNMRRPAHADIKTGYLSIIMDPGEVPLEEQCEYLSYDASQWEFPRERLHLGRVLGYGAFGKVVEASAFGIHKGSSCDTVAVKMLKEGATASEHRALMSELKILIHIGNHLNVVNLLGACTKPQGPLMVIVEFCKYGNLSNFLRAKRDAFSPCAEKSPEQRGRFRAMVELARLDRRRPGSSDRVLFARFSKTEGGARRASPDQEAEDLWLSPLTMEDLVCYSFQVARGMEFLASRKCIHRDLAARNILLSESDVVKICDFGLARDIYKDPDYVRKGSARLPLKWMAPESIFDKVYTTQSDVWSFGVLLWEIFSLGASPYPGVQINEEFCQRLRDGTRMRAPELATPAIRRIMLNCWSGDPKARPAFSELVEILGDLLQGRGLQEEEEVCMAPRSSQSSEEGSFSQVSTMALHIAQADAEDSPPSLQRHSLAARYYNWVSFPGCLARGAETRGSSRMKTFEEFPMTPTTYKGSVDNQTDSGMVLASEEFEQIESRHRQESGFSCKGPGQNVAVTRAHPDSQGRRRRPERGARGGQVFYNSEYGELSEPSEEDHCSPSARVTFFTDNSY
Chain of Receptor tyrosine-protein kinase erbB-4 (Q15303 whole entry): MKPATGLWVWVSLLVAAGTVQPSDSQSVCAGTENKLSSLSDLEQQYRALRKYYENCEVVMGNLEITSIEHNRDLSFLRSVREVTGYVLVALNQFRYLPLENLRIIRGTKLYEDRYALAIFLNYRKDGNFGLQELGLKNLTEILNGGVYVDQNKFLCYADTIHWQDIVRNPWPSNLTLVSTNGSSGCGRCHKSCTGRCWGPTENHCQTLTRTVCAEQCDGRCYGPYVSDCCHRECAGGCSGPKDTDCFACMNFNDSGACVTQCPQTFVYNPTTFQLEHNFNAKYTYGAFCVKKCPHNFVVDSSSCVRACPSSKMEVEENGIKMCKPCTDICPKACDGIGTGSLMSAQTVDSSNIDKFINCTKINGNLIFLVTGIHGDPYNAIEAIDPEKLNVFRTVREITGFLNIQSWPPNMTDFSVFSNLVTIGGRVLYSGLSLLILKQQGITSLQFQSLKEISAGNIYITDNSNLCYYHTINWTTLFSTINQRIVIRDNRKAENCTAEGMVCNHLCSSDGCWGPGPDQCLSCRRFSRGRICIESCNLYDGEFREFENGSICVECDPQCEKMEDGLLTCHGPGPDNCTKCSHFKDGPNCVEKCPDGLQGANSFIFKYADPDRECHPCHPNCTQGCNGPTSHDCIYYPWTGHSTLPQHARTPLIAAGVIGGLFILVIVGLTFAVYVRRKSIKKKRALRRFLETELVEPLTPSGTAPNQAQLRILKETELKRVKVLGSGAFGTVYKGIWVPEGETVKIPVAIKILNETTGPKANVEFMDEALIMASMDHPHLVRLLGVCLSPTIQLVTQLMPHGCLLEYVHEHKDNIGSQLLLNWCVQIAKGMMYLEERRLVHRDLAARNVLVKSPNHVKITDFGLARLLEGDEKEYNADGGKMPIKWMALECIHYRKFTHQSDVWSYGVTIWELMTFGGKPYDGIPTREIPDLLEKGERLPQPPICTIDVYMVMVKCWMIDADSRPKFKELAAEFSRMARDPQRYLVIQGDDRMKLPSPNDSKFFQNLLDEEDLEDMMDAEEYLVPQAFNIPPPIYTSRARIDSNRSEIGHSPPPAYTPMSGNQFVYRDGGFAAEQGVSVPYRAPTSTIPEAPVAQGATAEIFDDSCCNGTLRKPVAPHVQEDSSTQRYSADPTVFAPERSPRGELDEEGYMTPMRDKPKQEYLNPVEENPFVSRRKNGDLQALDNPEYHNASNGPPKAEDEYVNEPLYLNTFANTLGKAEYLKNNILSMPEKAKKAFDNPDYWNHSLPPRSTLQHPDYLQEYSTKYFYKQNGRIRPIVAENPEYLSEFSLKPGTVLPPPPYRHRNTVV
Chain of Non-receptor tyrosine-protein kinase TYK2 (P29597 whole entry): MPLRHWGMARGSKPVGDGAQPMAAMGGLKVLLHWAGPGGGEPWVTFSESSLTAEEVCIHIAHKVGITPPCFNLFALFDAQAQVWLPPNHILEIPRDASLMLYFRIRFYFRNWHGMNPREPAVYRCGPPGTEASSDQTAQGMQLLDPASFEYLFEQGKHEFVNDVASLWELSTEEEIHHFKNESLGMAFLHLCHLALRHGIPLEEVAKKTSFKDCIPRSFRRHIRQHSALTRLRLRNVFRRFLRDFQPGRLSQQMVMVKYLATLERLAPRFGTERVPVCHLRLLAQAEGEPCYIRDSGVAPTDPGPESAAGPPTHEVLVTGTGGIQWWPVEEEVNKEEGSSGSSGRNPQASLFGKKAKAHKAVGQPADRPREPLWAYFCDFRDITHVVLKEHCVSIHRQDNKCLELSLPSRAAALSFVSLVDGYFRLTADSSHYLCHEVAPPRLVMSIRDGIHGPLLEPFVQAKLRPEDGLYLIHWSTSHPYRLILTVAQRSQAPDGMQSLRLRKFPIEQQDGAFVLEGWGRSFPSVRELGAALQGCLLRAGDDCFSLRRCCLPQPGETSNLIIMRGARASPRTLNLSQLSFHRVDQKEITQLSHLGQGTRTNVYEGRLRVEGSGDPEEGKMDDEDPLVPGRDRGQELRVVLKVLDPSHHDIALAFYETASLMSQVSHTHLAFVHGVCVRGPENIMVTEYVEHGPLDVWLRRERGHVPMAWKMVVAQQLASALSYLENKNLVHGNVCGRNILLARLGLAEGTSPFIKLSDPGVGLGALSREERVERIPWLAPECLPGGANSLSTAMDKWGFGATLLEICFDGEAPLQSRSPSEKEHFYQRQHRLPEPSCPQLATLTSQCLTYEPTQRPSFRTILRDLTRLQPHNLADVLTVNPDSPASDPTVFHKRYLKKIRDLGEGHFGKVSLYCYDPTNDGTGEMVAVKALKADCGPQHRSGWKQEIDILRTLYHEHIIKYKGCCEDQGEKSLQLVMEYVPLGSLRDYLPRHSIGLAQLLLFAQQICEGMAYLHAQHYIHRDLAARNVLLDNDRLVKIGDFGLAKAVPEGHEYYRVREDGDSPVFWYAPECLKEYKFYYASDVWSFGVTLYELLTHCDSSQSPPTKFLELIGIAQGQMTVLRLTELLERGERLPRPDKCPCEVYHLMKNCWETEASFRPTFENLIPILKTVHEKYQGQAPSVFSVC
Chain of Serine/threonine-protein kinase PLK3 (Q9H4B4 whole entry, looked up): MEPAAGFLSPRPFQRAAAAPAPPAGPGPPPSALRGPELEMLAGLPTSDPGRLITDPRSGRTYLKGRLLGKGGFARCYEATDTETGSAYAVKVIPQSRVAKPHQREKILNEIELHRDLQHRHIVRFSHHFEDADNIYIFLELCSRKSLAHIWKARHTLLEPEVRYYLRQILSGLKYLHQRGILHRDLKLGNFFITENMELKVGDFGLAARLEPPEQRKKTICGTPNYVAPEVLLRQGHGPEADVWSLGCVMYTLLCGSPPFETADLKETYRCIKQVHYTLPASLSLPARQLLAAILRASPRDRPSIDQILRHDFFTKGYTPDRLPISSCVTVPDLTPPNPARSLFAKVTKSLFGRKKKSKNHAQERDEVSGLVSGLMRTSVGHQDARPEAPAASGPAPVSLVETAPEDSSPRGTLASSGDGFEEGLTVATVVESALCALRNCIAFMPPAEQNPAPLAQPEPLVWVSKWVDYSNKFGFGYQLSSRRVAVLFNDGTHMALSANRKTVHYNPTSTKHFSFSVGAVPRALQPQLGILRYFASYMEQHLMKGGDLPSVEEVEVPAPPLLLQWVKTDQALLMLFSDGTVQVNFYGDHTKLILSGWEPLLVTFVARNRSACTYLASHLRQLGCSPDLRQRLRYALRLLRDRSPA

SMILES: Cc1cc([C@@H](C)Nc2ccccc2C(=O)O)c2nc(N3CCOCC3)cc(=O)n2c1 [AZD-6482]
% of control [1]: 75%

% of control [2]: 91%
SMILES: CC(=O)Nc1cccc(-n2c(=O)n(C3CC3)c(=O)c3c(Nc4ccc(I)cc4F)n(C)c(=O)c(C)c32)c1

SMILES: Nc1cnc(N2CCc3cc(S(=O)(=O)Nc4c(F)cc(Cl)cc4F)cc(N4CCCC4=O)c32)nc1 [TP-020n]
% of control [3]: 100% | % of control [4]: 84%

% of control ([5]; at 1 µM): 93% | % of control ([5]; at 5 µM): 90%
SMILES: C=CC(=O)Nc1cccc(C(=O)Nc2ccc(Nc3cc(-c4[nH]c(SC)nc4C)ccn3)cc2)c1

% of inhibition [6]: 8%
SMILES: Cc1ccc(-c2ccc3c(ccc4sc5c(c43)NC[C@@H](C)NC5=O)n2)cn1

SMILES: C=CC(=O)Nc1cc(-n2c(=O)ccc3cnc4ccc(-c5ccc(NS(C)(=O)=O)cc5)cc4c32)ccc1C
% of control ([7]; at 1 µM): 72% | % of control ([7]; at 10 µM): 100%

SMILES: N#Cc1cccc(-c2c[nH]c3ncnc(N4CCOCC4)c23)c1
% of inhibition [8]: 39%

From ChEMBL document CHEMBL5465560, “Selectivity Literature for EUbOPEN Chemogenomic Library” (2024)
